Measurements as given in patent US20120058935A1, “ANTIMICROBIAL COMPOSITIONS AND METHODS OF USE THEREFORE” (priority 2009, published 2012).
Converted amounts (≈) assume the structure as drawn. Like-named read-outs stand apart in the source and are kept apart here. Ends that are not written are not given here.

Columns and labels:
Streptococcus agalactiae = assay type: cell-based; conditions: ATCC 12386; BHIB/LHB; 12 hrs incubation at 37° C.
Protocol: (§1) Bacteria were cultured aerobically in Mueller-Hinton broth (MHB), Brain and Heart Infusion broth (BHIB), or BHIB supplemented with 1% lysed horse blood and plated on Tryptone Soy Agar (TSA) plates containing 5% defibrinated sheep blood. […] Organisms were subcultured for 2 hrs to generate mid-logarithmic growth cultures for use as inoculates in experiments.
(§2) Bacteria inoculum cell densities were normalized to 5×10^5 cells/ml immediately before use photometrically and subsequently confirmed by colony count. Inoculum of C. albicans contained a cell density of 2.5×10^3 CFU/ml.
(§3) Bulk powdered peptides were first dissolved in 30% trifluoroethanol (TFE) at 1 mg/ml. […] Stock solutions at 2 mg/ml were prepared the day of experimentation from the peptide films by solubilizing a second time in either water or 20% TFE. Aβ stocks prepared in water were sonicated and insoluble peptide aggregates pelleted by centrifugation (10 min×16,000 g). Peptide concentrations in stock solutions were determined immediately before use by bicinchoninic acid (BCA) protein assay. […] For MIC experiments, peptides were serially diluted into growth media. For other experiments stocks were diluted into required working buffers. Experiments included controls for peptide buffer vehicle alone.
(§4) Experiments identified peptide MIC by broth microdilution susceptibility test in conjunction with CFU and alamar blue assays. […] Peptide MIC was taken as the lowest concentration able reduce cell growth by CFU and alamar blue assays by at least two-fold and which correlated with the visible loss of a growth button on the bottom of microtiter wells. Experiments were repeated a minimum of three times for each organism, and tests included at least three replicates for each assay condition. Experiments included control serial dilutions of buffer vehicle alone.

Candida albicans = assay type: cell-based
Protocol: as §1, §2, §3, §4

Escherichia coli = assay type: cell-based; conditions: ATCC 25922; BHIB; 12 hrs incubation at 37° C.
Protocol: as §1, §2, §3, §4

Streptococcus mitis = assay type: cell-based; conditions: ATCC 6249; BHIB/LHB; 12 hrs incubation at 37° C.
Protocol: as §1, §2, §3, §4

Streptococcus pneumoniae = assay type: cell-based; conditions: ATCC 49619; BHIB/LHB; 12 hrs incubation at 37° C.
Protocol: as §1, §2, §3, §4

[1] = tested on: Staphylococcus epidermidis; assay type: cell-based
Protocol: as §1, §2, §3, §4

Staphylococcus aureus = assay type: cell-based; conditions: ATCC 25923; MHB; 12 hrs incubation at 37° C.
Protocol: as §1, §2, §3, §4

Streptococcus salivarius = assay type: cell-based; conditions: ATCC 13419; BHIB/LHB; 12 hrs incubation at 37° C.
Protocol: as §1, §2, §3, §4

Pseudomonas aeruginosa = assay type: cell-based
Protocol: as §1, §2, §3, §4

Enterococcus faecalis = assay type: cell-based
Protocol: as §1, §2, §3, §4

Streptococcus pyogenes = assay type: cell-based
Protocol: as §1, §2, §3, §4

Listeria monocytogenes = assay type: cell-based
Protocol: as §1, §2, §3, §4

E. faecalis = E. faecalis growth curves with peptide (CFU with time); assay type: cell-based, Enterococcus faecalis; conditions: 25 μg/ml peptide; CFU counted with time (FIG. 1)
Protocol: Bacterial growth with time was monitored by inoculation of agar with diluted incubants and counting CFU. Representative data from six experiments is shown as mean signal of four replicates±s.e.m.
CFU assay; Serial dilutions of incubants were prepared and streaked onto the surface of agar. The agar plates were then incubated overnight at 37° C. and colonies forming units counted.

[2] = clinical trial, AD patients, ref. [34]; cited from earlier work
12 microorganisms = assay: Antimicrobial activity against the panel of 12 microorganisms (summary); assay type: cell-based; conditions: summary in words of the MIC experiments
Protocol: Peptide antimicrobial activity was determined as minimal inhibitory concentration (MIC). Experiments identified peptide MIC by broth microdilution susceptibility test in conjunction with CFU and alamar blue assays. Inoculum containing mid-logarithmic phase cells was dispensed into the wells of polypropylene 96-well plates (Fisher, Pittsburgh, Pa.) containing seven two-fold dilutions of test peptide in growth media. Plates were then incubated aerobically overnight (12 to 18 hrs) at 37° C. Peptide MIC was taken as the lowest concentration able reduce cell growth by CFU and alamar blue assays by at least two-fold and which correlated with the visible loss of a growth button on the bottom of microtiter wells. Experiments were repeated a minimum of three times for each organism, and tests included at least three replicates for each assay condition. Experiments included control serial dilutions of buffer vehicle alone.

Row | Molecule | MIC against Candida albicans (Candida albicans; 18 h) | MIC against Staphylococcus epidermidis ([1]; 18 h) | MIC against Pseudomonas aeruginosa (Pseudomonas aeruginosa; 18 h) | MIC against Enterococcus faecalis (Enterococcus faecalis; 18 h) | MIC against Streptococcus pyogenes (Streptococcus pyogenes; 18 h) | MIC against Listeria monocytogenes (Listeria monocytogenes; 18 h) | Inhibition of microbial growth, panel of 12 microorganisms (12 microorganisms) | further results
1 | CC[C@H](C)[C@H](NC(=O)[C@H](CCCCN)NC(=O)[C@H](CCC(=O)O)NC(=O)[C@H](CCCCN)NC(=O)[C@H](CO)NC(=O)[C@H](CCCCN)NC(=O)[C@H](CCCNC(=N)N)NC(=O)[C@H](Cc1ccccc1)NC(=O)[C@H](Cc1ccccc1)NC(=O)[C@H](CC(=O)O)NC(=O)CNC(=O)[C@H](CC(C)C)NC(=O)[C@@H](N)CC(C)C)C(=O)NCC(=O)N[C@@H](CCCCN)C(=O)N[C@@H](CCC(=O)O)C(=O)N[C@@H](Cc1ccccc1)C(=O)N[C@@H](CCCCN)C(=O)N[C@@H](CCCNC(=N)N)C(=O)N[C@H](C(=O)N[C@H](C(=O)N[C@@H](CCC(N)=O)C(=O)N[C@@H](CCCNC(=N)N)C(=O)N[C@H](C(=O)N[C@@H](CCCCN)C(=O)N[C@@H](CC(=O)O)C(=O)N[C@@H](Cc1ccccc1)C(=O)N[C@@H](CC(C)C)C(=O)N[C@@H](CCCNC(=N)N)C(=O)N[C@@H](CC(N)=O)C(=O)N[C@@H](CC(C)C)C(=O)N[C@H](C(=O)N1CCC[C@H]1C(=O)N[C@@H](CCCNC(=N)N)C(=O)N[C@H](C(=O)N[C@@H](CCC(=O)O)C(=O)N[C@@H](CO)C(=O)O)[C@@H](C)O)C(C)C)[C@@H](C)CC)C(C)C)[C@@H](C)CC [LL-37] | – | – | – | – | – | – | – | MIC against Streptococcus agalactiae (Streptococcus agalactiae): 12.5 µg/mL (≈ 2.78 µM); MIC against Candida albicans (Candida albicans; ATCC 10231, RPMI-1640, 18 hrs incubation at 37° C.): 6.25 µg/mL (≈ 1.39 µM); MIC against Escherichia coli (Escherichia coli): 1.56 µg/mL (≈ 0.347 µM); MIC against Streptococcus mitis (Streptococcus mitis): 6.25 µg/mL (≈ 1.39 µM); MIC against Streptococcus pneumoniae (Streptococcus pneumoniae): 1.56 µg/mL (≈ 0.347 µM); MIC against Staphylococcus epidermidis ([1]; ATCC 12228, BHIB, 18 hrs incubation at 37° C.): 25 µg/mL (≈ 5.56 µM); MIC against Staphylococcus aureus (Staphylococcus aureus): 6.25 µg/mL (≈ 1.39 µM); MIC against Streptococcus salivarius (Streptococcus salivarius): 50 µg/mL (≈ 11.1 µM); MIC against Pseudomonas aeruginosa (Pseudomonas aeruginosa; ATCC 27853, BHIB, 18 hrs incubation at 37° C.): 6.25 µg/mL (≈ 1.39 µM); MIC against Enterococcus faecalis (Enterococcus faecalis; ATCC 29212, BHIB, 18 hrs incubation at 37° C.): 6.25 µg/mL (≈ 1.39 µM); MIC against Streptococcus pyogenes (Streptococcus pyogenes; ATCC 19615, BHIB/LHB, 18 hrs incubation at 37° C.): 6.25 µg/mL (≈ 1.39 µM); MIC against Listeria monocytogenes (Listeria monocytogenes; ATCC 19112, BHIB, 18 hrs incubation at 37° C.): 25 µg/mL (≈ 5.56 µM); Mode of action on E. faecalis growth (bacteriostatic or bactericidal) (E. faecalis): potent bactericidal activity
2 | C[C@@H](C(=O)O)c1ccc(-c2ccccc2)c(F)c1 [tarenflurbil] | – | – | – | – | – | – | – | Rates of infection in patients receiving the drug [2]: significantly increased rates of infection
3 | AIVVGGVMLGIIAGKNSGVDEAFFVLKQHHVEYGSDHRFEAD [reAβ42] | >25 µg/mL | >50 µg/mL | >50 µg/mL | 50 µg/mL | >50 µg/mL | >50 µg/mL | not inhibited | –
4 | DAEFGHDSGFEVRHQKLVFFAEDVGSNKGAIIGLMVGGVVIA [roAβ42] | 0.78 µg/mL | 3.13 µg/mL | >50 µg/mL | 3.13 µg/mL | >50 µg/mL | 6.25 µg/mL | demonstrated antimicrobial activity | –
5 | recAβ42: Recombinant human Aβ42 purchased from rPeptide | – | – | – | – | – | – | Equivalent findings | –
